Here are results for eight compounds from ChEMBL document CHEMBL1201862, “PubChem BioAssay data set” (2004).

Structures are written as SMILES.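 The compound was tested at five concentrations on cells cultured in 96-well plates, with a 48-hour exposure period. GI50 = concentration required for 50% inhibition of growth.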 Calls of active or inactive are those of the source. Cut-off read from the data, not from the text of the source: active = GI50 up to about 1.1 µM and inactive = higher.

Among the test systems are KM12; SR; U-251; COLO 205; SNB-19; RPMI-8226; UACC-62; HCC 2998; NCI-H522; ACHN; EKVX; HOP-92; NCI-H226; MCF7; HCT-116; NCI/ADR-RES; OVCAR-3; CCRF-CEM; HL-60; OVCAR-4.
Experiment in all cases: growth of human tumour cells (NCI), 48 h

As to `O=c1oc2ccccc2cc1/C=N/N1C(=S)N(c2ccccc2)C(=N\c2ccccc2)/C1=N/c1ccccc1`, the GI50 in the test on KM12, with SR, with U-251, with COLO 205, in the test on SNB-19 and in the test on RPMI-8226 was > 100 µM (inactive) throughout. For the same compound, the GI50 in the test with UACC-62 is 98.2 µM (inactive); in the test on HCC 2998 it was > 100 µM (inactive); in the test with NCI-H522, 34 µM (inactive); in the test with ACHN it was 39.6 µM (inactive); with EKVX it was > 100 µM (inactive); in the test with HOP-92, > 100 µM (inactive). Moreover, the GI50 in the test on NCI-H226 was > 100 µM (inactive); in the test with MCF7, > 100 µM (inactive); in the test with HCT-116, 41.4 µM (inactive); in the test with NCI/ADR-RES, > 100 µM (inactive); with OVCAR-3, > 100 µM (inactive).
`O=C1N=C(S)NNC12c1ccccc1-c1ccccc12`: the GI50 with KM12, in the test on SR, with U-251, with COLO 205, in the test on CCRF-CEM and in the test on RPMI-8226 was > 10 µM (inactive) in each case. For the same compound, the GI50 with UACC-62 was > 10 µM (inactive); in the test on HCC 2998, > 10 µM (inactive); in the test on HL-60, > 10 µM (inactive); with EKVX it was 2.99 µM (inactive); in the test on HOP-92, > 10 µM (inactive); in the test on NCI-H226, > 10 µM (inactive). Also, the GI50 was 8.71 µM (inactive) in the test on MCF7, > 10 µM (inactive) with OVCAR-4 and > 10 µM (inactive) in the test with NCI/ADR-RES.
As to `COc1ccc2oc(=O)c(CC=C(C)C)c(O)c2c1C`, the GI50 in the test on KM12, in the test with SR, in the test with U-251, in the test with COLO 205, in the test on CCRF-CEM and in the test with SNB-19 was > 100 µM (inactive) each time. The GI50 in the test on RPMI-8226, with UACC-62, with HCC 2998, in the test on HL-60, in the test with NCI-H522 and in the test with ACHN was > 100 µM (inactive) throughout. Moreover, the GI50 in the test with EKVX, in the test on NCI-H226, in the test on MCF7, in the test on HCT-116, with NCI/ADR-RES and in the test on OVCAR-3 was > 100 µM (inactive) in each case.
Consider `O=C1c2ccccc2NC(=O)C2C1C(c1ccccc1)CC2(O)c1ccccc1` (stereo not given), for which the GI50 is 48 µM (inactive) in the test with KM12; 70.3 µM (inactive) with SR; 17.5 µM (inactive) with COLO 205; 27.7 µM (inactive) in the test with CCRF-CEM; 35.2 µM (inactive) in the test with SNB-19; > 100 µM (inactive) with UACC-62. The GI50 in the test with HCC 2998 was 67 µM (inactive); with HL-60 it was 53.1 µM (inactive); in the test with ACHN, 37 µM (inactive); in the test with EKVX, > 100 µM (inactive); with HOP-92, 9.89 µM (inactive); in the test with MCF7, > 100 µM (inactive). The GI50 in the test with OVCAR-4 is 17.7 µM (inactive); in the test on HCT-116 it was 16.9 µM (inactive); with NCI/ADR-RES, 31.7 µM (inactive); in the test on OVCAR-3, 31.6 µM (inactive).
Consider `C[n+]1c(-c2ccc(/C=N/NC(=N)N/N=C/c3ccc(-c4cn5cc(Cl)ccc5[n+]4C)cc3)cc2)cn2cc(Cl)ccc21`, for which the GI50 in the test with KM12, in the test on SR, with U-251, with COLO 205, with CCRF-CEM and in the test with SNB-19 was > 100 µM (inactive) each time. Moreover, the GI50 in the test with RPMI-8226, in the test on HCC 2998, in the test with HL-60, in the test with NCI-H522, in the test on ACHN and in the test on EKVX was > 100 µM (inactive) in each case. The GI50 in the test on MCF7, in the test with OVCAR-4, with HCT-116 and with NCI/ADR-RES was > 100 µM (inactive) each time.
For the compound `COC(=O)CN1SC2(SC13C(C)(C)C(=O)C3(C)C)C(C)(C)C(=O)C2(C)C`, the GI50 is 44.6 µM (inactive) with KM12; 81.8 µM (inactive) in the test with SR; 94.4 µM (inactive) with U-251; 37.3 µM (inactive) in the test on COLO 205; 11.1 µM (inactive) with CCRF-CEM; > 100 µM (inactive) in the test on SNB-19. Also, the GI50 is 49.8 µM (inactive) with RPMI-8226; > 100 µM (inactive) in the test with UACC-62; 80.2 µM (inactive) in the test with HCC 2998; > 100 µM (inactive) with ACHN; 63.4 µM (inactive) in the test on EKVX; 0.0244 µM (active) in the test with HOP-92. The GI50 in the test on NCI-H226 was 22.1 µM (inactive); in the test on MCF7, 54.2 µM (inactive); in the test with OVCAR-4, > 100 µM (inactive); with HCT-116 it was 46 µM (inactive); in the test on NCI/ADR-RES, 34.1 µM (inactive); in the test with OVCAR-3 it was 41.6 µM (inactive).
Turning to `c1ccc(C(CCN2CCCC2)c2ccccn2)cc1` (stereo not given), the GI50 in the test with KM12 was > 100 µM (inactive); in the test on SR, < 0.01 µM (active); in the test with U-251, > 100 µM (inactive); in the test with COLO 205, > 100 µM (inactive); in the test with SNB-19 it was > 100 µM (inactive); in the test on RPMI-8226, > 100 µM (inactive). Also, the GI50 with UACC-62, with HCC 2998, in the test on NCI-H522, with ACHN, with EKVX and in the test with HOP-92 was > 100 µM (inactive) in each case. The GI50 in the test with NCI-H226, in the test on MCF7, in the test on OVCAR-4, in the test with HCT-116 and in the test with NCI/ADR-RES was > 100 µM (inactive) in each case.
As to `CN1CCC23c4c5ccc(O)c4OC2c2[nH]c4ccccc4c2CC3(O)C1C5` (stereo not given), the GI50 in the test with KM12 is 51.2 µM (inactive); with SR it was 26.6 µM (inactive); in the test with U-251, 22.5 µM (inactive); in the test on COLO 205 it was 17.1 µM (inactive); in the test with CCRF-CEM, 22 µM (inactive); with SNB-19, 65.5 µM (inactive). In addition, the GI50 with RPMI-8226 is 19.5 µM (inactive); in the test on UACC-62, 23.4 µM (inactive); in the test on HCC 2998 it was 17.5 µM (inactive); in the test on NCI-H522 it was 37 µM (inactive); in the test with ACHN it was 24.4 µM (inactive); in the test on EKVX, 92.9 µM (inactive). Moreover, the GI50 in the test with HOP-92 was 16.3 µM (inactive); in the test on MCF7 it was 36.3 µM (inactive); with OVCAR-4, 38.5 µM (inactive); in the test with HCT-116 it was 35.4 µM (inactive); with NCI/ADR-RES, > 100 µM (inactive); with OVCAR-3, 42.6 µM (inactive).
